Measurements as given in US20260207614A1, “IRAK4 DEGRADERS AND USES THEREOF” (Kymera Therapeutics, Inc., priority 2022, published 2026).

What was measured:
[1] = Diastereomer interconversion; format: physicochemical; settings: in vitro and in vivo
Description: (S,R,R)-Compound A and (R,R,R)-Compound A, which are designated as Compound B and Compound C, respectively. In some embodiments, Compound A is Compound B. In some embodiments, Compound A is Compound C. In some embodiments, Compound A is a mixture of Compound B and Compound C. […] In some embodiments, Compound A, Compound B, Compound C, or a pharmaceutically acceptable salt thereof, is amorphous. In some embodiments, Compound A, Compound B, Compound C, or a pharmaceutically acceptable salt thereof, is in crystal form.

[2] = tested on: patients with hidradenitis suppurativa (HS); settings: Phase 2 and 3, week 4; cited from earlier work
[3] = tested on: patients with atopic dermatitis (AD); settings: Phase 3, week 4; cited from earlier work

## Cn1c(=O)n([C@H]2CCC(=O)NC2=O)c2cccc(C#CCOC3CCN(C[C@H]4CC[C@H](n5cc(NC(=O)c6cnn7ccc(N8C[C@H]9C[C@@H]8CO9)nc67)c(C(F)F)n5)CC4)CC3)c21 [Compound B, 5-((1R,4R)-2-oxa-5-azabicyclo[2.2.1]heptan-5-yl)-N-(3-(difluoromethyl)-1-((1r,4R)-4-((4-((3-(1-((S)-2,6-dioxopiperidin-3-yl)-3-methyl-2-oxo-2,3-dihydro-1H-benzo[d]imidazol-4-yl)prop-2-yn-1-yl)oxy)piperidin-1-yl)methyl)cyclohexyl)-1H-pyrazol-4-yl)pyrazolo[1,5-a]pyrimidine-3-carboxamide]
[1]
  interconversion of diastereomers: interconvert rapidly

## Cn1c(=O)n([C@@H]2CCC(=O)NC2=O)c2cccc(C#CCOC3CCN(C[C@H]4CC[C@H](n5cc(NC(=O)c6cnn7ccc(N8C[C@H]9C[C@@H]8CO9)nc67)c(C(F)F)n5)CC4)CC3)c21 [Compound C, 5-((1R,4R)-2-oxa-5-azabicyclo[2.2.1]heptan-5-yl)-N-(3-(difluoromethyl)-1-((1r,4R)-4-((4-((3-(1-((R)-2,6-dioxopiperidin-3-yl)-3-methyl-2-oxo-2,3-dihydro-1H-benzo[d]imidazol-4-yl)prop-2-yn-1-yl)oxy)piperidin-1-yl)methyl)cyclohexyl)-1H-pyrazol-4-yl)pyrazolo[1,5-a]pyrimidine-3-carboxamide]
[1]
  interconversion of diastereomers: interconvert rapidly

## Adalimumab
[2]
  Responders: AN Count 0/1/2: 28-47%^2, 3
  Responders: HiSCR50: 29-51%^3, 4
  Responders: HiSCR75: 20%^4
  Responders: Pain NRS30: 39-58%^2, 3, 5
  ΔAN Count: −31%^1

## Dupilumab
[3]
  Responders: Peak Pruritis NRS, Past Week/Past 24 Hours, first value: 23%
  Responders: Peak Pruritis NRS, Past Week/Past 24 Hours, second value: 40%
  ΔEASI: −52%^1
  ΔPeak Pruritis NRS: Past Week/Past 24 Hours: −34%^1
